Data from patent publication EP4782453A1 (Beyang Therapeutics Co., Ltd., priority 2023, dated 2025).
Read-outs that look alike come from different tables or passages of the source.

Experiments:
Menin-MLL = biological target: T1, Menin-MLL (Homo sapiens, UniProt O00255); test: Inhibitory activity against Menin-MLL binding (fluorescence polarization); details: 150 nM His-Menin, 15 nM FITC-MLL, 25°C for 60 min
T1 construct: His-Menin (M1-L615 end); purchased BIORTUS BP9210
T1 sequence (O00255 1-615 isoform O00255-1): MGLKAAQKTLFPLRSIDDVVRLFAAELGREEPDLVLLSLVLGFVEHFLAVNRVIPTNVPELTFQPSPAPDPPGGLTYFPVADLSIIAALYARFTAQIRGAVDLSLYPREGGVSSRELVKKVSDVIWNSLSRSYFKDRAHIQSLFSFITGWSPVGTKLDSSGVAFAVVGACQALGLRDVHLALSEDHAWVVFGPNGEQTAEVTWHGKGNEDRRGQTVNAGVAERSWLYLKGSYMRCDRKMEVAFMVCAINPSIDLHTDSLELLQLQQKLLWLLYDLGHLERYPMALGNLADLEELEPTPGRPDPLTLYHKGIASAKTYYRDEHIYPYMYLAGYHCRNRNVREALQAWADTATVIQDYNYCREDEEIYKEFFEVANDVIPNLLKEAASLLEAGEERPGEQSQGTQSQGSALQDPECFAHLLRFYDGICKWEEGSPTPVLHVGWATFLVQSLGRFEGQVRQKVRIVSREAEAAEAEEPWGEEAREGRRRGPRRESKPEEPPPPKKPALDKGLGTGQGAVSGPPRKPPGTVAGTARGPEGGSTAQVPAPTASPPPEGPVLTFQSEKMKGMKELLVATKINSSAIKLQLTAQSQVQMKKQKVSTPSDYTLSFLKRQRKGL
Method in brief: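 His-Menin (M1-L615, 150 nM) preincubated with compound 15 min at 25 °C in HEPES pH 7.5, 50 mM NaCl, 1 mM DTT, 0.01% BSA, then 15 nM FITC-MLL4-43 peptide added for 60 min at 25 °C. Fluorescence polarization read; IC50 from 4-parameter logistic fit, duplicates.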

MEIS1 gene expression = test: Inhibition of MEIS1 gene expression in human tumor cells (qRT-PCR), MOLM-13; assay type: cell-based; details: MOLM-13 (carrying MLL-AF9), 48 hours of incubation, relative MEIS1 gene expression vs GAPDH
Source text: Experimental Example 3: Evaluation of Inhibitory Activity of Compounds Against MEISI Gene Expression in Human Tumor Cells
The effect of test samples on MEIS1 gene expression in vitro cultured human leukemia cells MV-4-11 (carrying MLL-AF4), MOLM-13 (carrying MLL-AF9), and OCI-AML3 (carrying NPM1c) was studied.
• Human acute lymphoblastic leukemia cells MV-4-11, purchased from American Type Culture Collection, Catalog Number: CRL-9591; • Human acute myeloid leukemia cells MOLM-13, purchased from COBIOER BIOSCIENCES CO., LTD, Catalog Number: CBP60678; • Human acute myeloid leukemia cells OCI-AML3, purchased from COBIOER BIOSCIENCES CO., LTD, Catalog Number: CBP60817; • MEIS1 Primer/Probe, purchased from IDT, Catalog Number: 40831613; and • GAPDH Primer/Probe, purchased from IDT, Catalog Number: 22214836.
MV-4-11 cells were cultured in an IMDM medium containing 10% fetal bovine serum, or MOLM-13 and OCI-AML3 cells were cultured in an RPMI-1640 medium containing 20% fetal bovine serum, each supplemented with 100 U·mL^-1 penicillin and 100 µg·mL^-1 streptomycin. These cells were cultured at 37°C with 5% CO2. The suspensions of individual cell lines were prepared in their respective media and seeded into 48-well plates at a density of 100,000 cells/well. On the day of the experiment, a compound stock solution was diluted in a 6-fold gradient using DMSO. Each gradient-diluted stock solution was then further diluted 250-fold with a complete medium to prepare a series of working solutions at different concentrations. Next, 250 µL of working solution (containing the complete medium with a 2-fold serial concentration of the test compound or a positive control compound, or containing a control complete medium) was added to each well. After 48 hours of incubation, cells from the 48-well plate were collected into 1 mL centrifuge tubes, centrifuged at 1000 rpm for 5 minutes, and the complete medium was removed. Cells were washed twice with 1 mL PBS and centrifuged to remove PBS. Total RNA was extracted using the RNeasy Mini Kit (250) (QIAGEN, 74106). The threshold cycle (Ct) value for gene expression was determined using the HiScript II U+ One Step qRT-PCR Probe Kit (Vazyme) (Vazyme, Q223-01), with 3 replicates per sample. The prepared reaction mixture was placed in an ABI 7500 real-time PCR instrument, and the reaction proceeded following the procedures below. [formula]
Next, for the relative MEIS1 gene expression, the concentration (EC50) that inhibits 50% of relative MEIS1 gene expression was calculated using GraphPad Prism 8 software.

[1] = fluorescence polarization, read-out: Menin-MLL IC50

Row | Compound | IC50 (Menin-MLL; [1]) [nM] | EC50 (MEIS1 gene expression) [nM] | IC50 (Menin-MLL; Menin-MLL IC50, fluorescence polarization) [nM] | IC50 (Menin-MLL; read-out: Menin-MLL IC50, fluorescence polarization) [nM]
1 | CCN(C(=O)c1cc(F)ccc1-c1cc(C2CN([C@H](CCCN3CCN(C)CC3)C(C)C)C2)cn2c(C)ncc12)C(C)C [Example 310-2, N-ethyl-5-fluoro-2-(3-methyl-6-{1-[(3R)-2-methyl-6-(4-methylpiperazin-1-yl)hexan-3-yl]azacyclobutan-3-yl}imidazo[1,5-a]pyridin-8-yl)-N-(isopropyl)benzamide] | 3.6 | 6.5 | – | –
2 | CCN(C(=O)c1cc(F)ccc1-c1cc(C2(F)CN(C(=O)C3NC4CCC3CC4)C2)cn2c(C)ncc12)C(C)C [Example 75, N-ethyl-5-fluoro-2-(6-{3-fluoro-1-[(1R,3S,4S)-2-azabicyclo[2.2.2]octan-3-carbonyl]azacyclobutan-3-yl}-3-methylimidazo[1,5-a]pyridin-8-yl)-N-(isopropyl) benzamide] | – | – | 17.5 | –
3 | CCN(C(=O)c1cc(F)ccc1-c1cc(C2CN([C@@H](C)C3CCN(C(=O)CO)CC3)C2)cn2c(C)nc(F)c12)C(C)C [Example 284-2] | 2 | 5.9 | – | –
4 | CNC(=O)N1CCC([C@H](C)N2CC(c3cc(-c4ccc(F)cc4C(=O)N4CCOC[C@H]4C)c4c(F)nc(C)n4c3)C2)CC1 [Example 264-2] | 6 | – | – | –
5 | CCN(C(=O)c1cc(F)ccc1-c1cc(C2CN([C@H](CCCN3C4COCC3C4)C(C)C)C2)cn2c(C)ncc12)C(C)C [Example 423] | 1.7 | 2.3 | – | –
6 | Cc1nc(F)c2c(-c3ccc(F)cc3C(=O)N3CCOC[C@H]3C)cc(C3CN(C(CC[C@@H]4COCCN4)C(C)C)C3)cn12 (stereo partly drawn) [Example 371, (3R)-4-{5-fluoro-2-[1-fluoro-3-methyl-6-(1-{4-methyl-1-[(3R)-morpholin-3-yl]pentan-3-yl}azacyclobutan-3-yl)imidazo[1,5-a]pyridin-8-yl]benzoyl}-3-methylmorpholine] | 4.8 | 1.1 | – | –
7 | CCN(C(=O)c1cc(F)ccc1-c1cc(C2CCN(Cc3ccc(-c4cc(OC)c(OC)nn4)cc3)C2)cn2c(C)ncc12)C(C)C (stereo not shown) [Example 83] | 6 | – | – | –
8 | COCCN(C)CCCC(C(C)C)N1CC(c2cc(-c3ccc(F)cc3C(=O)N3CCOCC3C)c3cnn(C)c3c2)C1 (stereo not shown) [Example 185] | 14.5 | – | – | –
9 | Cc1nc(F)c2c(-c3ccc(F)cc3C(=O)N3CCOC[C@H]3C)cc(C3CN([C@H](CN4CCN(C)CC4)C(C)C)C3)cn12 [Example 368-2, (3R)-4-[5-fluoro-2-(1-fluoro-3-methyl-6-{1-[(2S)-3-methyl-1-(4-methylpiperazin-1-yl)butan-2-yl]azacyclobutan-3-yl}imidazo[1,5-a]pyridin-8-yl)benzoyl]-3-methylmorpholine] | 4.3 | 9.1 | – | –
10 | COCCN(C)CCC[C@H](C(C)C)N1CC(c2cc(-c3ccc(F)cc3C(=O)N3[C@H](C)COC[C@H]3C)c3cnn(C)c3c2)C1 [Example 186-2, [(4R)-4-[3-(4-{2-[(3R,5R)-3,5-dimethylmorpholin-4-carbonyl]-4-fluorophenyl}-1-methyl-1H-indazol-6-yl)azacyclobutan-1-yl]-5-methylhexyl](2-methoxyethyl)methylamine] | 5.2 | – | – | –
11 | CC(=O)N1CCN(CCC[C@H](C(C)C)N2CC(c3cc(-c4ccc(F)cc4C(=O)N4CCOC[C@H]4C)c4c(F)nc(C)n4c3)C2)CC1 [Example 265] | 12.8 | 38 | – | –
12 | CCN(C(=O)c1cc(F)ccc1-c1cc(C2CN([C@H](CCCN3CCN(C(C)=O)CC3)C(C)C)C2)cn2c(C)ncc12)C(C)C [Example 311-2, 2-(6-{1-[(3R)-6-(4-acetylpiperazin-1-yl)-2-methylhexan-3-yl]azacyclobutan-3-yl}-3-methylimidazo[1,5-a]pyridin-8-yl)-N-ethyl-5-fluoro-N-(isopropyl)benzamide] | 8.5 | 11 | – | –
13 | Cc1nc(F)c2c(-c3ccc(F)cc3C(=O)N3CCOC[C@H]3C)cc(C3CN([C@H](CO[C@@H]4CCCN(C)C4)C(C)C)C3)cn12 [Example 297-1, (3R)-4-[5-fluoro-2-(1-fluoro-3-methyl-6-{1-[(2S)-3-methyl-1-{[(3R)-1-methylpiperidin-3-yl]oxy}butan-2-yl]azacyclobutan-3-yl}imidazo[1,5-a]pyridin-8yl)benzoyl]-3-methylmorpholine] | 10.8 | 12 | – | –
14 | Cc1ncc2c(-c3ccc(F)cc3C(=O)N3CCOC[C@H]3C)cc(C3CN([C@H](CCCN4CCN(C)CC4)C(C)C)C3)cn12 [Example 323-2, (3R)-4-[5-fluoro-2-(3-methyl-6-{1-[(3R)-2-methyl-6-(4-methylpiperazin-1-yl)hexan-3-yl]azacyclobutan-3-yl}imidazo[1,5-a]pyridin-8-yl)benzoyl]-3-methylmorpholine] | 2.7 | 8.4 | – | –
15 | CCS(=O)(=O)N[C@H]1CC[C@H](CN2CC(c3cc(-c4ccc(F)cc4C(=O)N(CC(F)F)C(C)C)c4cnc(C)n4c3)C2)CC1 [Example 138] | 6 | 8 | – | –
16 | CCN(C(=O)c1cc(F)ccc1-c1cc(C2CN(C[C@H]3CC[C@H](NS(=O)(=O)CC)CC3)C2)cn2c(C)nc(F)c12)C(C)C [Example 137] | 6.5 | 9 | – | –
17 | Cc1nc(F)c2c(-c3ccc(F)cc3C(=O)N3CCOC[C@H]3C)cc(C3CN([C@H](CCCN4CCN(C5CC5)CC4)C(C)C)C3)cn12 [Example 350] | 3.3 | 4 | – | –
18 | CO[C@H]1CCCN(CCC[C@H](C(C)C)N2CC(c3cc(-c4ccc(F)cc4C(=O)N4CCOC[C@H]4C)c4c(F)nc(C)n4c3)C2)C1 [Example 306] | 6.5 | – | – | –
19 | CC(=O)N1CCC(CN2CC(c3cc(-c4ccc(F)cc4C(=O)N4[C@H](C)COC[C@H]4C)c4c(F)nc(C)n4c3)C2)CC1 [Example 205] | 10.3 | – | – | –
20 | CO[C@@H]1CCN(CCC[C@H](C(C)C)N2CC(c3cc(-c4ccc(F)cc4C(=O)N4CCOC[C@H]4C)c4c(F)nc(C)n4c3)C2)C1 [Example 202] | 4.3 | – | – | –
21 | CO[C@@H]1CCCN(CCC[C@H](C(C)C)N2CC(c3cc(-c4ccc(F)cc4C(=O)N4CCOC[C@H]4C)c4c(F)nc(C)n4c3)C2)C1 [Example 305] | 8 | – | – | –
22 | Cc1nc(F)c2c(-c3ccc(F)cc3C(=O)N3[C@H](C)COC[C@H]3C)cc(C3CN(CC4CCOCC4)C3)cn12 [Example 208] | 9 | – | – | –
23 | Cc1nc(F)c2c(-c3ccc(F)cc3C(=O)N3CCOCC3C)cc(C3CN(C(CCCN4CCCC(O)C4)C(C)C)C3)cn12 (stereo not shown) [Example 292] | 4.5 | – | – | –
24 | CCS(=O)(=O)N[C@H]1CC[C@H](CN2CC(c3cc(-c4ccc(F)cc4C(=O)N4[C@H](C)COC[C@H]4C)c4c(F)nc(C)n4c3)C2)CC1 [Example 197, N-[(1r,4r)-4-{[3-(8-{2-[(3R,5R)-3,5-dimethylmorpholin-4-carbonyl]-4-fluorophenyl}-1-fluoro-3-methylimidazo[1,5-a]pyridin-6-yl)azacyclobutan-1-yl]methyl}cyclohexyl]ethan-1-sulfonamide] | – | – | – | 6.5
25 | CCNC(=O)N1CCC(CN2CC(c3cc(-c4ccc(F)cc4C(=O)N4CCOC[C@H]4C)c4c(F)nc(C)n4c3)C2)CC1 [Example 261] | 8.5 | – | – | –
